In US20090203577A1 (EXELIXIS, INC., priority 2005, published 2009):
Converted amounts (≈) assume the structure as drawn. Like-named read-outs stand apart in the source and are kept apart here.

Tests used:
[1] = target: T1, human farnesoid X receptor (Homo sapiens, UniProt Q96RI1); assay: FXR in vitro assays (farnesoid X receptor/ECREx7 co-transfection assay, TR-FRET assay), Table I; type: cell-based; details: for Emax: read-out: % Efficacy
T1 construct: CMX-farnesoid X receptor (full length human farnesoid X receptor); expressed in transfected cells; host or cells: CV-1 African Green Monkey Kidney cells
T1 sequence (Q96RI1 1-472 isoform Q96RI1-2): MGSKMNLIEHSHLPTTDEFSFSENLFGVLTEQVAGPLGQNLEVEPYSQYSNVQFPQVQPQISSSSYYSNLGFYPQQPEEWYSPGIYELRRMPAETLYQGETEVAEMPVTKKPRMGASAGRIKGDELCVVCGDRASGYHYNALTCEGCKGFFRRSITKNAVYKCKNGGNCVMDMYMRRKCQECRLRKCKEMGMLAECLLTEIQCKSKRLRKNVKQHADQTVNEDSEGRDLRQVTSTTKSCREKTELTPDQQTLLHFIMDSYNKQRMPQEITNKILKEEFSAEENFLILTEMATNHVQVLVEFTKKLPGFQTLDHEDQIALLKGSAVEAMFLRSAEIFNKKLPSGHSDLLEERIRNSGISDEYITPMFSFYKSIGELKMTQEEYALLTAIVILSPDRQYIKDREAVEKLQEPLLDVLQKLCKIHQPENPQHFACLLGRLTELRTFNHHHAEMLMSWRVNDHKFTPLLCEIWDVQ
T1 sequence (P19793 1-462 partner): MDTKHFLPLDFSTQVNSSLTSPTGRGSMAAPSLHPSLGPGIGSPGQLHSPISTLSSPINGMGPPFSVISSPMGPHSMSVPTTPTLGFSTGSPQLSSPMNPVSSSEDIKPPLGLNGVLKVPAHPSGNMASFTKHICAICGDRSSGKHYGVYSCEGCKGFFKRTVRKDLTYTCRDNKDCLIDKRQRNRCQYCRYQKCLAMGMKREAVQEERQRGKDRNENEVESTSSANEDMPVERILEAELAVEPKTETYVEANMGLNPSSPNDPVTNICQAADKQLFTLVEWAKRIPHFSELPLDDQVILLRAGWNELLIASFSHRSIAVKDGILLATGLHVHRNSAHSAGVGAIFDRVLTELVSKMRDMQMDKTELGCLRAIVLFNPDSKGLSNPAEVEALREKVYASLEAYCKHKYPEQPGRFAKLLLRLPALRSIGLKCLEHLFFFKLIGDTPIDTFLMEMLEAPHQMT
How it was run: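 CV-1 monkey kidney cells transfected for an FXR/ECREx7 luciferase co-transfection reporter; luciferase read 18-20 h later in lysates. 8-point dose-response at ½-log spacing, 4 wells per point; EC50/IC50 from four-parameter Hill fit, averaged over at least 3 independent experiments.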

[2] = physchem; details: pH 7.4, aqueous buffer, kinetic from dmso stock
Description: The kinetic solubility of test compounds in buffer was evaluated using a 96 well filtration plate format. A 500 μM assay solution in PBS, pH7.4 (or other assay buffer, as needed) was generated form a DMSO stock solution (up to 10 mM). Samples were transferred to a 96 Millipore MultiScreen HTS 96-well Filter plate (Cat# MSSLBPC10) mixed by shaking for 1.5 hours and processed by filtration prior to quantitation by HPLC-UV. Amiodarone and testosterone were used as reference controls.

[3] = agonist activity, one or more of the in vitro assays, read-out: EC50

CC(C)OC(=O)C1=CN(C(=O)NC2CCCNC2)CC(C)(C)c2c1[nH]c1ccccc21 (stereo not drawn) [Example 56, 1-methylethyl 1,1-dimethyl-3-[(piperidin-3-ylamino)carbonyl]-1,2,3,6-tetrahydro azepino[4,5-b]indole-5-carboxylate]
EC50 [1, 3]: 1000 to 10000 nM
Emax [1]: < 40%
solubility kinetic at 1.5 h [2]: > 10 µM

CC(C)OC(=O)C1=CN(C(=O)N2CCC[C@H](CN3CCOCC3)C2)CC(C)(C)c2c1[nH]c1ccccc21 [Example 57, 1-methylethyl 1,1-dimethyl-3-{[(3R)-3-(morpholin-4-ylmethyl)piperidin-1-yl]carbonyl}-1,2,3,6-tetrahydroazepino [4,5-b]indole-5-carboxylate]
EC50 [1, 3]: 1000 to 10000 nM
Emax [1]: > 100%
solubility kinetic at 1.5 h [2]: > 10 µM

CC(C)OC(=O)C1=CN(C(=O)N2CCC[C@H](CN3CCCCC3)C2)CC(C)(C)c2c1[nH]c1ccccc21 [Example 58]
EC50 [1, 3]: 1000 to 10000 nM
Emax [1]: 80 to 100%
solubility kinetic at 1.5 h [2]: > 10 µM

CC(C)OC(=O)C1=CN(C(=O)N2CCC[C@@H](N3CCCCC3)C2)CC(C)(C)c2c1[nH]c1ccccc21 [Example 60, 1-methylethyl 3-[(3′R)-1,3′-bipiperidin-1′-ylcarbonyl]-1,1-dimethyl-1,2,3,6-tetrahydroazepino[4,5-b]indole-5-carboxylate]
EC50 [1, 3]: 1000 to 10000 nM
Emax [1]: 60 to 80%
solubility kinetic at 1.5 h [2]: > 10 µM

CC(C)OC(=O)C1=CN(C(=O)c2ccccc2C(F)(F)F)CC(C)(C)c2c1[nH]c1ccccc21 [Example 64, 1-methylethyl 1,1-dimethyl-3-{[2-(trifluoromethyl)phenyl]-carbonyl}-1,2,3,6-tetrahydroazepino[4,5-b]indole-5-carboxylate]
EC50 [1, 3]: 10 to 100 nM
Emax [1]: > 100%
solubility kinetic at 1.5 h [2]: 1 to 10 µM (≈ 0.47 to 4.7 µg/mL)

CC(C)OC(=O)C1=CN(C(=O)c2ccccc2Br)CC(C)(C)c2c1[nH]c1ccccc21 [Example 67, 1-methylethyl 3-[(2-bromophenyl)carbonyl]-1,1-dimethyl-1,2,3,6-tetrahydroazepino[4,5-b]indole-5-carboxylate]
EC50 [1, 3]: 10 to 100 nM
Emax [1]: > 100%
solubility kinetic at 1.5 h [2]: 1 to 10 µM (≈ 0.481 to 4.81 µg/mL)

CC(C)OC(=O)C1=CN(C(=O)c2ccccc2OC(F)(F)F)CC(C)(C)c2c1[nH]c1ccccc21 [Example 70, 1-methylethyl 1,1-dimethyl-3-({2-[(trifluoromethyl)oxy]phenyl}carbonyl)-1,2,3,6-tetrahydroazepino[4,5-b]indole-5-carboxylate]
EC50 [1, 3]: 100 to 1000 nM
Emax [1]: > 100%
solubility kinetic at 1.5 h [2]: 1 to 10 µM (≈ 0.486 to 4.86 µg/mL)

CC(C)OC(=O)C1=CN(C(=O)c2cccc(F)c2)CC(C)(C)c2c1[nH]c1ccccc21 [Example 72, 1-methylethyl 3-[(3-fluorophenyl)carbonyl]-1,1-dimethyl-1,2,3,6-tetrahydroazepino[4,5-b]indole-5-carboxylate]
EC50 [1, 3]: 1 to 10 nM
Emax [1]: > 100%
solubility kinetic at 1.5 h [2]: 1 to 10 µM (≈ 0.42 to 4.2 µg/mL)

CC(C)OC(=O)C1=CN(C(=O)c2ccc3c(c2)OCO3)CC(C)(C)c2c1[nH]c1ccccc21 [Example 80, 1-methylethyl 3-(1,3-benzodioxol-5-ylcarbonyl)-1,1-dimethyl-1,2,3,6-tetrahydroazepino[4,5-b]indole-5-carboxylate]
EC50 [1, 3]: 10 to 100 nM
Emax [1]: > 100%
solubility kinetic at 1.5 h [2]: 1 to 10 µM (≈ 0.447 to 4.47 µg/mL)

CC(C)OC(=O)C1=CN(C(=O)c2cccc(Cl)c2)CC(C)(C)c2c1[nH]c1ccccc21 [Example 81, 1-methylethyl 3-[(3-chlorophenyl)carbonyl]-1,1-dimethyl-1,2,3,6-tetrahydroazepino[4,5-b]indole-5-carboxylate]
EC50 [1, 3]: 10 to 100 nM
Emax [1]: > 100%
solubility kinetic at 1.5 h [2]: 1 to 10 µM (≈ 0.437 to 4.37 µg/mL)

CC(C)OC(=O)C1=CN(C(=O)c2ccc(Cl)cc2)CC(C)(C)c2c1[nH]c1ccccc21 [Example 82, 1-methylethyl 3[(4-chlorophenyl)carbonyl]-1,1-dimethyl-1,2,3,6-tetrahydroazepino[4,5-b]indole-5-carboxylate]
EC50 [1, 3]: 10 to 100 nM
Emax [1]: > 100%
solubility kinetic at 1.5 h [2]: 1 to 10 µM (≈ 0.437 to 4.37 µg/mL)

CC(C)OC(=O)C1=CN(C(=O)c2ccc(F)c(C(F)(F)F)c2)CC(C)(C)c2c1[nH]c1ccccc21 [Example 83, 1-methylethyl 3-{[4-fluoro-3-(trifluoromethyl)phenyl]car-bonyl}-1,1-dimethyl-1,2,3,6-tetrahydroazepino[4,5-b]indole-5-carboxylate]
EC50 [1, 3]: 10 to 100 nM
Emax [1]: > 100%
solubility kinetic at 1.5 h [2]: 1 to 10 µM (≈ 0.488 to 4.88 µg/mL)

Cc1cccc(C(=O)N2C=C(C(=O)OC(C)C)c3[nH]c4ccccc4c3C(C)(C)C2)c1 [Example 86, 1-methylethyl 1,1-dimethyl-3-[(3-methylphenyl)carbonyl]-1,2,3,6-tetrahydroazepino[4,5-b]indole-5-carboxylate]
EC50 [1, 3]: 1 to 10 nM
Emax [1]: > 100%
solubility kinetic at 1.5 h [2]: 1 to 10 µM (≈ 0.417 to 4.17 µg/mL)

CC(C)NC(=O)C1CN(C(=O)c2ccc(F)c(F)c2)CC(C)(C)c2c1[nH]c1ccccc21 (stereo not drawn) [Example 90, 3-[(3,4-difluorophenyl)carbonyl]-1,1-dimethyl-N-(1-methylethyl)-1,2,3,4,5,6-hexahydroazepino[4,5-b]indole-5-carboxamide]
EC50 [1, 3]: 1000 to 10000 nM
Emax [1]: > 100%
solubility kinetic at 1.5 h [2]: > 10 µM

CC(C)OC(=O)C1=CN(C(=O)c2ccc(F)c(F)c2)CC(C)(C)c2c1[nH]c1cc(OC(=O)NCCN(C)C)ccc21 [Example 93, 1-methylethyl 3-[(3,4-difluorophenyl)carbonyl]-8-[({[2-(dimethylamino)ethyl]amino}carbonyl)oxy]-1,1-dimethyl-1,2,3,6-tetrahydroazepino[4,5-b]indole-5-carboxylate]
EC50 [1]: 10 to 100 nM
Emax [1]: > 100%
solubility kinetic at 1.5 h [2]: > 10 µM

CC(C)OC(=O)C1=CN(C(=O)c2ccc(F)c(F)c2)CC(C)(C)c2c1[nH]c1cc(OC(=O)OC(C)(C)C)ccc21 [Example 96, 1-methylethyl 3-[(3,4-difluorophenyl)carbonyl]-8-({[(1,1-dimethylethyl)oxy]carbonyl}oxy)-1,1-dimethyl-1,2,3,6-tetrahydroazepino[4,5-b]indole-5-carboxylate]
EC50 [1, 3]: 10 to 100 nM
Emax [1]: > 100%
solubility kinetic at 1.5 h [2]: 1 to 10 µM (≈ 0.555 to 5.55 µg/mL)

CC(C)OC(=O)C1=CN(C(=O)c2cccc(OCc3ccccc3)c2)CC(C)(C)c2c1[nH]c1ccccc21 [Example 127, 1-methylethyl 1,1-dimethyl-3-({3-[(phenylmethyl)oxy]phenyl}carbonyl)-1,2,3,6-tetrahydroazepino[4,5-b]indole-5-carboxylate]
EC50 [1, 3]: 10 to 100 nM
Emax [1]: > 100%
solubility kinetic at 1.5 h [2]: 1 to 10 µM (≈ 0.509 to 5.09 µg/mL)

Cc1ccc(C(=O)N2C=C(C(=O)OC(C)C)c3[nH]c4ccccc4c3C(C)(C)C2)cc1F [Example 130, 1-methylethyl 3-[(3-fluoro-4-methylphenyl)carbonyl]-1,1-dimethyl-1,2,3,6-tetrahydroazepino[4,5-b]indole-5-carboxylate]
EC50 [1, 3]: 10 to 100 nM
Emax [1]: > 100%
solubility kinetic at 1.5 h [2]: 1 to 10 µM (≈ 0.435 to 4.35 µg/mL)

CC(C)OC(=O)C1=CN(C(=O)c2ccc(C(F)(F)F)cc2F)CC(C)(C)c2c1[nH]c1ccccc21 [Example 131, 1-methylethyl 3-{[2-fluoro-4-(trifluoromethyl)phenyl]car-bonyl}-1,1-dimethyl-1,2,3,6-tetrahydroazepino[4,5-b]indole-5-carboxylate]
EC50 [1, 3]: 100 to 1000 nM
Emax [1]: > 100%
solubility kinetic at 1.5 h [2]: > 10 µM

CC(C)OC(=O)C1=CN(C(=O)c2ccc(C(F)(F)F)c(Cl)c2F)CC(C)(C)c2c1[nH]c1ccccc21 [Example 132, 1-methylethyl 3-{[3-chloro-2-fluoro-4-(trifluoromethyl)phenyl]car-bonyl}-1,1-dimethyl-1,2,3,6-tetrahydroazepino[4,5-b]indole-5-carboxylate]
EC50 [1, 3]: 100 to 1000 nM
Emax [1]: > 100%
solubility kinetic at 1.5 h [2]: 1 to 10 µM (≈ 0.523 to 5.23 µg/mL)

CC(C)OC(=O)C1=CN(C(=O)c2cc(F)cc(C(F)(F)F)c2)CC(C)(C)c2c1[nH]c1ccccc21 [Example 134, 1-methylethyl 3-{[3-fluoro-5-(trifluoromethyl)phenyl]car-bonyl}-1,1-dimethyl-1,2,3,6-tetrahydroazepino[4,5-b]indole-5-carboxylate]
EC50 [1, 3]: 10 to 100 nM
Emax [1]: > 100%
solubility kinetic at 1.5 h [2]: 1 to 10 µM (≈ 0.488 to 4.88 µg/mL)
